The text below walks through data of patent US20070270418A1, “Inhibitors of P38 and Methods of Using the Same” (priority 2003, published 2007).

The target of one series is T1, p38α (Homo sapiens, UniProt Q16539).
T1 construct: p38 MAP Kinases are recombinant human full-length proteins with an amino-terminal GST fusion; GST (N); purchased Upstate (Charlottesville, Va.); host or cells: E. coli
The experiment in a line: p38 MAP Kinase assay, ATF2 phosphorylation (ELISA). The class given is biochemical. As to conditions: 40 μM ATP. In outline:
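Recombinant full-length GST-tagged human p38α (6 ng) pre-incubated 15 min at room temperature with compound, then reacted 30 min at 37° C with 40 μM ATP and 1.25 μM GST-ATF2 (aa 19-96) in HEPES pH 7.5/MgCl2 buffer. EDTA stop; ATF2 Thr69 phosphorylation measured by anti-phospho-ATF2 ELISA at 450 nm.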
(An ELISA detects its analyte on a solid surface through an enzyme-linked reagent.)

The subject of series [1] is TNFα release from THP-1 cells. The experiment in a line: TNFα release from LPS-stimulated THP-1 cells. Format: cell-based. In a few lines: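 THP-1 cells (10^6 cells/ml on resuspension) preincubated with compound 30 min at 37°C, 5% CO2, final DMSO ≤0.5%, then stimulated with 10 μg/ml LPS for 18 h (TNFα). Supernatants collected for TNFα analysis.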
Setting [2] is: Homo sapiens, THP-1, 18 h, LPS 10 μg/ml, 18 hours, read-out: TNFα (THP-1) IC50.
[3] abbreviates: Homo sapiens, THP-1, 18 h, read-out: TNFα (THP-1) IC50 (nM).

SMILES strings stand for the structures. Read-outs that look alike come from different tables or passages of the source.

T1 sequence (Q16539 whole entry, the tested form may be a part): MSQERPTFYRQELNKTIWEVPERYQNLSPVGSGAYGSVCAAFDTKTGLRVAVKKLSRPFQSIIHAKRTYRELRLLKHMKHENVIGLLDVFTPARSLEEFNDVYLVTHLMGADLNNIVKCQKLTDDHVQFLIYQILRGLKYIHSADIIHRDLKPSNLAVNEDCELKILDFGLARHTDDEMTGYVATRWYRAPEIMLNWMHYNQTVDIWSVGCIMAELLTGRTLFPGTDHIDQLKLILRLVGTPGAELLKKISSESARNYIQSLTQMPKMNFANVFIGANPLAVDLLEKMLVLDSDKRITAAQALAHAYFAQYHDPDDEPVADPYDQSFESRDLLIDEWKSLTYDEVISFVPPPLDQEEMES

Take `CS(=O)(=O)c1nccc(-c2c(-c3ccc(F)cc3)nc3sccn23)n1` [CXL, 6-(4-fluorophenyl)-5-(2-methanesulfonyl-pyrimidin-4-yl)-imidazo[2,1-b]thiazole]: the melting point – broadly, the temperature, or range, at which the solid turns liquid – is 197 to 198 °C. For the same compound, at p38α, 966 nM corresponded to half-maximal inhibition (IC50). Besides, the IC50 – broadly, the concentration that inhibits the measured activity by half – in series [1] (setting [2]) amounted to 4860 nM.

With `CSc1nccc(-c2c(-c3ccc(F)cc3)nc3occn23)n1` [X, 6-(4-fluorophenyl)-5-[2-(methylsulfanyl)pyrimidin-4-yl]imidazo[2,1-b][1,3]oxazole], the melting point is 144 to 145 °C. The IC50 against p38α worked out at 1130 nM.

`CC(C)(CO)CNc1nccc(-c2c(-c3ccc(F)cc3)nc3occn23)n1` [XXXIX, 3-({4-[6-(4-Fluorophenyl)imidazo[2,1-b][1,3]oxazol-5-yl]pyrimidin-2-yl}amino)-2,2-dimethylpropan-1-ol] yielded a melting point of 149 °C. Moreover, the 50% inhibitory concentration (IC50) on p38α worked out at 5.25 nM. In addition, the IC50 in series [1] (setting [2]) came out at 5.88 nM.

As to `CC(C)(C)OC(=O)N1CCC(Nc2nccc(-c3c(-c4ccc(F)cc4F)nc4occn34)n2)CC1` [CCLXXXIII], the IC50 against p38α was 1.1 nM; in series [1] (setting [2]), 52.7 nM.

Consider `OCCOCCNc1nccc(-c2c(-c3ccc(F)cc3)nc3occn23)n1` [XL], for which the IC50 against p38α came to 79 nM; in series [1] (setting [2]) it was 93 nM.

Take `Fc1ccc(CNc2nccc(-c3c(-c4ccc(F)cc4)nc4occn34)n2)cc1` [XCIV]: the IC50 on p38α was found to be 90.9 nM; in series [1] (setting [2]), 394 nM.

As to `CC(C)[C@@H](CO)Nc1nccc(-c2c(-c3ccc(F)c(F)c3)nc3sccn23)n1` [CCVII], the IC50 on p38α worked out at 191 nM; in series [1] (setting [2]) it was 43.4 nM.

Take `CC(=O)N1CCC(Nc2nccc(-c3c(-c4ccc(F)cc4Cl)nc4occn34)n2)CC1` [CCCIX]: the IC50 against p38α was determined as 1.3 nM; in series [1] (setting [2]), 6.5 nM.

Regarding `Clc1ccccc1-c1nc2occn2c1-c1ccnc(N[C@@H]2CN3CCC2CC3)n1` [CCXCI], the IC50 turned out to be 11.2 nM on p38α and 77 nM in series [1] (setting [3]).

`CC(CO)Nc1nccc(-c2c(-c3ccc(F)cc3)nc3occn23)n1` (stereo not drawn) [XLI]: the IC50 against p38α was 1.75 nM; in series [1] (LPS 10 μg/ml, 18 hours, read-out: TNFα (THP-1) IC50), 49.2 nM.

Regarding `Fc1ccc(-c2nc3occn3c2-c2ccnc(NCc3ccccn3)n2)cc1` [XLVIII], the values for the IC50 (on p38α; in series [1] (setting [2])) were 74 nM and 96.8 nM, respectively.

As for `CC(C)(C)OC(=O)N1CCC(Nc2nccc(-c3c(-c4ccc(F)cc4Cl)nc4occn34)n2)CC1` [CCLXXXIV], the IC50 was determined as 1.4 nM on p38α and 96.2 nM in series [1] (setting [2]).

As for `CC(C)(Nc1nccc(-c2c(-c3ccc(F)cc3)nc3occn23)n1)C(O)c1ccccc1` (stereo not drawn) [CXXVII], the IC50 was found to be 28.5 nM against p38α and 249 nM in series [1] (setting [2]).

For `CC(=O)N1CCC(Nc2nccc(-c3c(-c4ccc(F)cc4)nc4sccn34)n2)CC1` [CCLIII], the values for the IC50 (at p38α; in series [1] (setting [2])) were 1.65 nM and 6.27 nM, respectively.

For the compound `C[C@@H](Nc1nccc(-c2c(-c3ccc(F)cc3)nc3occn23)n1)C(N)=O` [CXXVI], the IC50 against p38α was 29.4 nM; in series [1] (setting [2]) it was 86.1 nM.

On to `CN1[C@@H]2CC[C@H]1C[C@@H](Nc1nccc(-c3c(-c4ccc(F)cc4F)nc4occn34)n1)C2` [CCCXII], for which the figures for the IC50 (on p38α; in series [1] (setting [3])) were 2.6 nM and 1.2 nM, respectively.

Regarding `OC1CCN(c2nccc(-c3c(-c4ccc(F)cc4)nc4occn34)n2)CC1` [XCVIII], the IC50 against p38α is 134 nM; in series [1] (setting [2]), 951 nM.

Turning to `CC(C)(C)OC(=O)N1CCCC1CNc1nccc(-c2c(-c3ccc(F)cc3)nc3sccn23)n1` (stereo not drawn) [CCLXIV], the values for the IC50 (at p38α; in series [1] (setting [2])) were 7.26 nM and 27.5 nM, respectively.

In the case of `CC[C@H](C)[C@@H](CO)Nc1nccc(-c2c(-c3ccc(F)cc3)nc3occn23)n1` [LXIV], the half-maximal inhibitory concentration (IC50) on p38α was 174 nM; in series [1] (setting [2]), 13.2 nM.

In the case of `CC(CO)(CO)Nc1nccc(-c2c(-c3ccc(F)cc3)nc3occn23)n1` [LXXXII], the IC50 on p38α stood at 184 nM; in series [1] (setting [2]), 50.5 nM.

On to `CC(C)(CO)Nc1nccc(-c2c(-c3ccc(F)cc3)nc3occn23)n1` [CXVIII], for which the IC50 on p38α turned out to be 2.91 nM; in series [1] (setting [2]), 26.3 nM.

Turning to `FC(F)(F)c1cccc(-c2nc3occn3c2-c2ccnc(NC3CCNCC3)n2)c1` [CCCXIII], the IC50 on p38α came out at 21.2 nM; in series [1] (setting [2]), 111 nM.

Regarding `Fc1ccc(-c2nc3occn3c2-c2ccnc(NCCN3CCCCC3)n2)cc1` [CXVI], the concentration for half-maximal inhibition (IC50) on p38α was determined as 236 nM; in series [1] (setting [2]), 376 nM.

With `C[C@@H](CO)CCNc1nccc(-c2c(-c3ccc(F)cc3)nc3occn23)n1` [XLVII], the results for the IC50 (on p38α; in series [1] (setting [2])) were 31.4 nM and 13.7 nM, respectively.

Regarding `Fc1ccc(-c2nc3occn3c2-c2ccnc(NCc3cccs3)n2)cc1` [XLIX], the IC50 at p38α stood at 5.87 nM; in series [1] (setting [2]), 20 nM.

`CC(C)(C)OC(=O)N1CCC(Nc2nccc(-c3c(-c4cccc(C(F)(F)F)c4)nc4occn34)n2)CC1` [CCCXI]: the results for the IC50 (against p38α; in series [1] (setting [2])) were 18 nM and 611 nM, respectively.

On to `CCC[C@H](CO)Nc1nccc(-c2c(-c3ccc(F)cc3)nc3occn23)n1` [CVI], for which the IC50 against p38α turned out to be 5.2 nM; in series [1] (setting [2]) it was 30.6 nM.

As to `NS(=O)(=O)c1ccc(CCNc2nccc(-c3c(-c4ccc(F)cc4)nc4occn34)n2)cc1` [CXXII], the IC50 was determined as 5.44 nM against p38α and 22.7 nM in series [1] (setting [2]).

As to `Cc1ccccc1-c1nc2occn2c1-c1ccnc(NC2CCNCC2)n1` [CCCVIII], the IC50 at p38α is 10 nM; in series [1] (setting [2]) it was 24 nM.

In the case of `CC[C@H](CO)Nc1nccc(-c2c(-c3ccc(F)cc3)nc3occn23)n1` [XXVII], the IC50 stood at 20.5 nM on p38α and 6.08 nM in series [1] (setting [2]).

As to `Nc1ccc(CCNc2nccc(-c3c(-c4ccc(F)cc4)nc4sccn34)n2)cc1` [CCXLIII], the values for the 50% inhibitory concentration (IC50) (at p38α; in series [1] (setting [2])) were 2.19 nM and 19.5 nM, respectively.

Take `CCCC[C@@H](CO)Nc1nccc(-c2c(-c3ccc(F)cc3)nc3occn23)n1` [LXV]: the half-maximal inhibitory concentration (IC50) against p38α worked out at 86.6 nM; in series [1] (setting [2]) it was 26.3 nM.

With `CC(CO)CCNc1nccc(-c2c(-c3ccc(F)cc3)nc3occn23)n1` (stereo not drawn) [XXXV], the IC50 (at p38α; in series [1] (setting [2])) was 17.9 nM throughout.

On to `N#CCCNc1nccc(-c2c(-c3ccc(F)cc3)nc3occn23)n1` [XIX], for which the results for the IC50 (at p38α; in series [1] (setting [2])) were 100 nM and 1140 nM, respectively.

Consider `OC1CCCCC1Nc1nccc(-c2c(-c3ccc(F)cc3)nc3occn23)n1` (stereo not drawn) [CX], for which the IC50 turned out to be 21.8 nM against p38α and 15 nM in series [1] (setting [2]).

As to `COc1cccc(-c2nc3sccn3c2-c2ccnc(N[C@H](CO)C(C)C)n2)c1` [CC], the IC50 came out at 112 nM against p38α and 93.8 nM in series [1] (setting [2]).

For `CC(C)(C)OC(=O)N1CCCC(CNc2nccc(-c3c(-c4ccc(F)cc4)nc4sccn34)n2)C1` (stereo not drawn) [CCXXXVI], the figures for the IC50 (against p38α; in series [1] (setting [2])) were 81.8 nM and 162 nM, respectively.

Consider `C[C@@H](Nc1nccc(-c2c(-c3ccc(F)cc3)nc3occn23)n1)[C@@H](O)c1ccc(O)cc1` [LXXVI], for which the IC50 turned out to be 6.72 nM at p38α and 41.2 nM in series [1] (setting [2]).
